Results on 7 compounds are retold here after US12371454B2, “Cyclic peptide compound having Kras inhibitory action” (priority 2019, dated 2025).

The subject of assay [1] is Human pancreatic cancer cell line AsPC-1. Description: Measurement of AsPC-1 cell growth inhibition (AsPC-1 CGI). The class given is cell-based. The following applies: 96 h. The gist of the method:
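AsPC-1 cells in 15% FBS RPMI-1640 were exposed to test compound for 96 hours at 37° C, with CellTiter-Glo as endpoint.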

Assay [2] has as its target T1, Kras and SOS1 (biotin-tagged human Kras loaded with GDP, His-tagged human SOS1) (Homo sapiens, UniProt P01116, G12D).
T1 construct: made in house; host or cells: E. coli (stated for Kras only)
Kind of assay: Protein-protein interaction inhibition between Kras and SOS1 (KrasGl2D-SOS PPI) using AlphaScreen. The class given is binding. The following applies: AlphaScreen; biotin-tagged human Kras loaded with GDP, His-tagged human SOS1; read-out: KRAS G12D-SOS PPI IC50. The gist of the method:
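AlphaScreen format: Ni donor beads capture His-SOS1, streptavidin acceptor beads capture biotinylated Kras (E. coli-expressed, GDP-loaded post-purification). Excite 680 nm, read 520-620 nm.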
In general terms: In Alpha technology, singlet oxygen from a donor bead excites a nearby acceptor bead.

Starred links: 1 amine or outer side, 2 acyl side, 3 side chain; linkers in the order of their positions; H or OH if unused. Positions of bridges follow the written chain, without caps; N, C: chain ends. Non-standard residues stand in square brackets, D forms with d. Residues, ends and D or L forms follow the SMILES beside them. *: point of attachment. hPhe(3-Cl-4-CF3) = N[C@@H](CCc1ccc(C(F)(F)F)c(Cl)c1)C(=O)O; X19 = CC(C)(C)Oc1cc(CC[C@H](N[*:1])C(=O)[*:2])cc(Cl)c1Cl; X28 = CCCCOc1cc(CC[C@H](N[*:1])C(=O)[*:2])cc(Cl)c1Cl; X52 = CN([C@@H](Cc1ccc(C#N)nc1)C(=O)[*:2])[*:1]; X21 = O=C(CN(c1cccc(Cl)c1)[*:1])[*:2]; X43 = O=C(CN(c1ccc(Cl)cc1)[*:1])[*:2]; NMeGly(cBu) = CN[C@H](C(=O)O)C1CCC1; NMeCha = CN[C@@H](CC1CCCCC1)C(=O)O; NMeChg = CN[C@H](C(=O)O)C1CCCCC1; X7 = O=C(CN(c1ccsc1)[*:1])[*:2]; NMeD = CN[C@@H](CC(=O)O)C(=O)O; NMeL = CN[C@@H](CC(C)C)C(=O)O; NMeV = CN[C@H](C(=O)O)C(C)C; NPhGly = O=C(O)CNc1ccccc1; NMeA = CN[C@@H](C)C(=O)O; NMeAib = CNC(C)(C)C(=O)O; Piperidide = C1CCN(*)CC1; Ac5c = NC1(C(=O)O)CCCC1; Aze = O=C(O)[C@@H]1CCN1; Sar = CNCC(=O)O Bounds are passed on as bounds.

T1 sequence (P01116 1-188 isoform P01116-2 G12D): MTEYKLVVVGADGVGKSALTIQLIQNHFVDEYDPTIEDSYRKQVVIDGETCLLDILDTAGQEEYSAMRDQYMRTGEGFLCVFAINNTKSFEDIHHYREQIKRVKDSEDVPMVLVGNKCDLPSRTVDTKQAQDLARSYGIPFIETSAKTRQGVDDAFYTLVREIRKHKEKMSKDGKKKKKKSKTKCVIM

The term IC50 denotes the midpoint of a concentration-inhibition curve. In the case of `CC[C@H](C)[C@@H]1NC(=O)[C@H](C)N(C)C(=O)C[C@@H](C(=O)N2CCCCC2)N(C)C(=O)[C@H](C2CCCCC2)N(C)C(=O)C2(CCCC2)NC(=O)[C@@H]2CCCN2C(=O)[C@H](CCc2cc(Cl)c(Cl)c(OC(C)(C)C)c2)NC(=O)CN(C)C(=O)[C@H](CC2CCCCC2)N(C)C(=O)CN(C)C(=O)CN(C)C1=O` [Compound 2082] ([NMeA]I[Sar][Sar][NMeCha][Sar][X19]P[Ac5c][NMeChg][NMeD]-Piperidide; lactam N-11), the IC50 was > 500 nM in assay [1] and 41 nM in assay [2].
The like results for `CCCCOc1cc(CC[C@@H]2NC(=O)CN(C)C(=O)[C@H](CC3CCCCC3)N(C)C(=O)CN(C)C(=O)CN(C)C(=O)[C@H]([C@@H](C)CC)NC(=O)[C@H](C)N(C)C(=O)C[C@@H](C(=O)N3CCCCC3)N(C)C(=O)[C@H](C(C)C)N(C)C(=O)C3(CCCC3)NC(=O)[C@@H]3CCCN3C2=O)cc(Cl)c1Cl` [Compound 2083] ([NMeA]I[Sar][Sar][NMeCha][Sar][X28]P[Ac5c][NMeV][NMeD]-Piperidide; lactam N-11) were, in that order, > 500 nM and 52 nM.
Consider `CC[C@H](C)[C@@H]1NC(=O)[C@H](C)N(C)C(=O)C[C@@H](C(=O)N2CCCCC2)N(C)C(=O)[C@H](C2CCC2)N(C)C(=O)C(C)(C)N(C)C(=O)CN(c2ccccc2)C(=O)[C@H](CCc2ccc(C(F)(F)F)c(Cl)c2)NC(=O)CN(C)C(=O)[C@H](C2CCC2)N(C)C(=O)[C@@H]2CCN2C(=O)[C@H](C)N(C)C1=O` [Compound 2144] ([NMeA]I[NMeA][Aze][NMeGly(cBu)][Sar][hPhe(3-Cl-4-CF3)][NPhGly][NMeAib][NMeGly(cBu)][NMeD]-Piperidide; lactam N-11), for which the IC50 in assay [1] is > 500 nM; in assay [2], 6.9 nM.
`CC[C@H](C)[C@@H]1NC(=O)[C@H](C)N(C)C(=O)C[C@@H](C(=O)N2CCCCC2)N(C)C(=O)[C@H](C2CCC2)N(C)C(=O)C(C)(C)N(C)C(=O)CN(c2cccc(Cl)c2)C(=O)[C@H](CCc2ccc(C(F)(F)F)c(Cl)c2)NC(=O)CN(C)C(=O)[C@H](C2CCC2)N(C)C(=O)[C@@H]2CCN2C(=O)[C@H](C)N(C)C1=O` [Compound 2146] ([NMeA]I[NMeA][Aze][NMeGly(cBu)][Sar][hPhe(3-Cl-4-CF3)][X21][NMeAib][NMeGly(cBu)][NMeD]-Piperidide; lactam N-11): the results for the IC50 in assay [1] and in assay [2] were > 500 nM and 5.1 nM, respectively.
The corresponding values for `CC[C@H](C)[C@@H]1NC(=O)[C@H](C)N(C)C(=O)C[C@@H](C(=O)N2CCCCC2)N(C)C(=O)[C@H](C2CCC2)N(C)C(=O)C(C)(C)N(C)C(=O)CN(c2ccc(Cl)cc2)C(=O)[C@H](CCc2ccc(C(F)(F)F)c(Cl)c2)NC(=O)CN(C)C(=O)[C@H](C2CCC2)N(C)C(=O)[C@@H]2CCN2C(=O)[C@H](C)N(C)C1=O` [Compound 2147] ([NMeA]I[NMeA][Aze][NMeGly(cBu)][Sar][hPhe(3-Cl-4-CF3)][X43][NMeAib][NMeGly(cBu)][NMeD]-Piperidide; lactam N-11) are > 500 nM and 8 nM.
For `CC[C@H](C)[C@@H]1NC(=O)[C@H](C)N(C)C(=O)C[C@@H](C(=O)N2CCCCC2)N(C)C(=O)[C@H](C2CCC2)N(C)C(=O)C2(CCCC2)NC(=O)CN(c2ccsc2)C(=O)[C@H](CCc2ccc(C(F)(F)F)c(Cl)c2)NC(=O)CN(C)C(=O)[C@H](CC2CCCCC2)N(C)C(=O)CN(C)C(=O)CN(C)C1=O` [Compound 2149] ([NMeA]I[Sar][Sar][NMeCha][Sar][hPhe(3-Cl-4-CF3)][X7][Ac5c][NMeGly(cBu)][NMeD]-Piperidide; lactam N-11), the IC50 in assay [1] was > 500 nM; in assay [2], 4 nM.
On to `CC[C@H](C)[C@@H]1NC(=O)[C@H](CC(C)C)N(C)C(=O)C[C@@H](C(=O)N2CCCCC2)N(C)C(=O)[C@H](C2CCCCC2)N(C)C(=O)C2(CCCC2)NC(=O)[C@H](Cc2ccc(C#N)nc2)N(C)C(=O)[C@H](CCc2ccc(C(F)(F)F)c(Cl)c2)NC(=O)CN(C)C(=O)[C@H](CC2CCCCC2)N(C)C(=O)CN(C)C(=O)CN(C)C1=O` [Compound 2169] ([NMeL]I[Sar][Sar][NMeCha][Sar][hPhe(3-Cl-4-CF3)][X52][Ac5c][NMeChg][NMeD]-Piperidide; lactam N-11), for which the results for the IC50 in assay [1] and in assay [2] were > 500 nM and 6.1 nM, respectively.
